Data as given in patent publication US5631222A, “Endothelin-antagonizing peptide” (Kyowa Hakko Kogyo Co., Ltd., priority 1993, dated 1997).
Positions of bridges follow the written chain, without caps; N, C: chain ends. Non-standard residues stand in square brackets, D forms with d. Residues, ends and D or L forms follow the SMILES beside them. 2Thi = N[C@@H](Cc1cccs1)C(=O)O; Cha = N[C@@H](CC1CCCCC1)C(=O)O; Nva = CCC[C@H](N)C(=O)O

Experiments:
[1] = test system: ET-1 contraction of rat thoracic aorta ring; experiment: Inhibitory effect on ET-1 contraction (ring specimen of extracted rat thoracic aorta); conditions: compound 10^-7 M, ET-1 3×10^-9 M, Sprague-Dawley rat thoracic aorta ring, tension relative to norepinephrine maximum
Method: Test Example 2: Inhibitory Effect On ET-1 Contraction (ring specimen of extracted rat thoracic aorta)
Male Sprague-Dawley rats (Slc. 450-550 g) were anesthetized by intravenous injection of 50 mg/kg of sodium pentobarbital (Nembutal™, Dynabot), and the heads thereof were then incised to die by bleeding. The breasts of the rats were then incised to extract the thoracic aortas therefrom. After the connective tissue which adhered to the blood vessels were removed in a nutrient solution, the blood vessels were cut into rings (3-4 mm), and two metallic holders (one of which was fixed to a support rod) were passed through the blood vessel to prepare a specimen. One end of the holder was mounted on a tension transducer (TB-611T, produced by Nihon Koden) through silk yarn, and the specimen was suspended in a Magnus' tube containing a nutrient solution. Resting tension (1.5 g) was applied to the specimen, and the nutrient solution was replaced several times until the tension was stabilized. Norepinephrine [(±) hydrochloride, Sigma] (10-20 μM) was then added, and the tension generated by contraction of the specimen was measured to determine the maximum value of the tension. The tension generated was detected by the tension transducer, amplified by a pressure strain amplifier (AP-621G, produced by Nihon Koden) and then recorded by a pen recorder (TYPE3066, YOKOGAWA). After the specimen was washed several times to remove Norepinephrine, each of the compounds shown in Table 3 which was dissolved in distilled water was added to the nutrient solution so that the concentration thereof was 10^-7 M, or only distilled water was added thereto in the same volume. […] After the specimens were allowed to stand for 10 minutes, ET-1 was successively added to the nutrient solutions so that the concentration thereof was 3×10^-9 M, and the tension of each of the specimens was measured. The relative value to the maximum tension previously determined was calculated, and the inhibitory effect (% inhibition) on contraction due to ET-1 was determined according to the following equation. […]

endothelin receptor = biological target: T1, endothelin receptor (Bos taurus, UniProt P28088); experiment: Endothelin receptor-antagonizing activity: inhibition of 125I-endothelin-1 binding to bovine cerebellum membrane fraction; conditions: 125I-Endothelin-1, bovine cerebellum membrane fraction, 25° C. for 2 hours; read-out: IC50: Concentration causing 50% inhibition of endothelin1 binding
T1 construct: the suspension was used as a membrane fraction liquid; from tissue; host or cells: bovine cerebellum membrane fraction
T1 sequence (P28088 27-441): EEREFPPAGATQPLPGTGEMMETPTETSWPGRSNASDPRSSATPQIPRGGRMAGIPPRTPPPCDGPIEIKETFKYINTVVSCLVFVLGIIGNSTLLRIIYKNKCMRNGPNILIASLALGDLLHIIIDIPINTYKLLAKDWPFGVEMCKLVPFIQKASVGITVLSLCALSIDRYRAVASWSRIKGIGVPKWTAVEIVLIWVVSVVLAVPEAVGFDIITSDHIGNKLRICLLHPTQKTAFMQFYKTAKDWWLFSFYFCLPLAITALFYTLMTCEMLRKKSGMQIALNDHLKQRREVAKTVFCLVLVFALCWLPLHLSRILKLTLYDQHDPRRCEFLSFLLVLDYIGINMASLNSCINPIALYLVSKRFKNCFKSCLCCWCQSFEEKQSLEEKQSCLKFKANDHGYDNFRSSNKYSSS
Method: Bovine cerebellum tissue was homogenized at 4° C. by using POLYTRON (type PT10/35, manufactured by Kinematic Gmbh Co.) in a buffer solution A (1 mM NaHCO3, 5 mM ethylenediaminetetraacetic acid, 5 μg/ml leupeptin, 5 μg/ml pepstatin A, 40 μM phenylmethylsulfonyl fluoride, pH 8.3).
The obtained suspension was centrifuged for 10 minutes at 8,000 G and 4° C., and the resulting supernatant was centrifuged for 60 minutes at 40,000 G and 4° C. to obtain pellets. The obtained pellets were suspended in a buffer solution A and again centrifuged for 60 minutes at 40,000 G and 4° C. The resulting solid substance was prepared as a suspension containing 2 mg/ml of protein, and the suspension was used as a membrane fraction liquid. […] These mixtures were incubated at 25° C. for 2 hours, and then filtered with a GF/B glass filter (produced by Whatman Co.). […] The inhibition ratio against endothelin receptor binding activity was calculated according to the following equation:
Inhibition ratio (%)=(C-A/C-B)×100
B: Radioactivity in the presence of unlabelled endothelin-1
C: Radioactivity in the absence of both of the compound shown in Table 2 and unlabelled endothelin-1

Row | Compound | % inhibition of contraction due to ET-1 [1] | IC50 (endothelin receptor)
1 | CC[C@H](C)[C@H](NC(=O)[C@H](CC1CCCCC1)NC(=O)[C@@H](NC(=O)[C@H](CC(C)C)NC(=O)[C@H](Cc1c[nH]cn1)NC(=O)[C@H](C)NC(=O)[C@H](Cc1ccccc1)NC(=O)[C@H](Cc1ccc(O)cc1)NC(=O)[C@@H](NC(=O)[C@H](Cc1c[nH]c2ccccc12)NC(=O)[C@H](CC(=O)O)NC(=O)[C@@H]1CCCN1C(=O)[C@H](C)NC(=O)[C@@H](NC(=O)CNC(=O)[C@H](Cc1c[nH]cn1)NC(=O)[C@H](Cc1c[nH]c2ccccc12)NC(=O)[C@H](CC(N)=O)NC(=O)CN)[C@@H](C)O)C(C)C)[C@@H](C)O)C(=O)N[C@@H](Cc1c[nH]c2ccccc12)C(=O)O [Compound 14, HGlyAsnTrpHisGlyThrAlaProAspTrpValTyrPheAlaHisLeuThrChaIleTrpOH] (H-GNWHGTAPDWVYFAHLT[Cha]IW-OH) | 47.0% | 12 nM
2 | CC[C@H](C)[C@H](NC(=O)[C@H](Cc1cccs1)NC(=O)[C@@H](NC(=O)[C@H](CC(C)C)NC(=O)[C@H](Cc1c[nH]cn1)NC(=O)[C@H](C)NC(=O)[C@H](Cc1ccccc1)NC(=O)[C@H](Cc1ccc(O)cc1)NC(=O)[C@@H](NC(=O)[C@H](Cc1c[nH]c2ccccc12)NC(=O)[C@H](CC(=O)O)NC(=O)[C@@H]1CCCN1C(=O)[C@H](C)NC(=O)[C@@H](NC(=O)CNC(=O)[C@H](Cc1c[nH]cn1)NC(=O)[C@H](Cc1c[nH]c2ccccc12)NC(=O)[C@H](CC(N)=O)NC(=O)CN)[C@@H](C)O)C(C)C)[C@@H](C)O)C(=O)N[C@@H](Cc1c[nH]c2ccccc12)C(=O)O [Compound 17, HGlyAsnTrpHisGlyThrAlaProAspTrpValTyrPheAlaHisLeuThrThiIleTrpOH] (H-GNWHGTAPDWVYFAHLT[2Thi]IW-OH) | 61.3% | 0.12 nM
3 | H-GNWHGTAPDWVYFAHLSMIW-OH [Compound 21] | 40.4% | 0.96 nM
4 | CC[C@H](C)[C@H](NC(=O)[C@H](Cc1cccs1)NC(=O)CNC(=O)[C@H](CC(C)C)NC(=O)[C@H](Cc1c[nH]cn1)NC(=O)[C@H](C)NC(=O)[C@H](Cc1ccccc1)NC(=O)[C@H](Cc1ccc(O)cc1)NC(=O)[C@@H](NC(=O)[C@H](Cc1c[nH]c2ccccc12)NC(=O)[C@H](CC(=O)O)NC(=O)[C@@H]1CCCN1C(=O)[C@H](C)NC(=O)[C@@H](NC(=O)CNC(=O)[C@H](Cc1c[nH]cn1)NC(=O)[C@H](Cc1c[nH]c2ccccc12)NC(=O)[C@H](CC(N)=O)NC(=O)CN)[C@@H](C)O)C(C)C)C(=O)N[C@@H](Cc1c[nH]c2ccccc12)C(=O)O [Compound 30, HGlyAsnTrpHisGlyThrAlaProAspTrpValTyrPheAlaHisLeuGlyThiIleTrpOH] (H-GNWHGTAPDWVYFAHLG[2Thi]IW-OH) | – | 170 nM
5 | H-GNWHGTAPDWVYFAHLNYIW-OH [Compound 20] | – | 12 nM
6 | CC[C@H](C)[C@@H]1NC(=O)[C@H](Cc2ccccc2)NC(=O)CNC(=O)C[C@@H](C(=O)N[C@@H](Cc2c[nH]c3ccccc23)C(=O)N[C@H](C(=O)N[C@@H](Cc2ccc(O)cc2)C(=O)N[C@@H](Cc2ccccc2)C(=O)N[C@@H](C)C(=O)N[C@@H](Cc2c[nH]cn2)C(=O)N[C@@H](CC(C)C)C(=O)N[C@@H](CC(=O)O)C(=O)N[C@H](C(=O)N[C@H](C(=O)N[C@@H](Cc2c[nH]c3ccccc23)C(=O)O)[C@@H](C)CC)[C@@H](C)CC)C(C)C)NC(=O)[C@H](CC(N)=O)NC(=O)CNC(=O)[C@H](Cc2c[nH]c3ccccc23)NC(=O)CNC1=O [Compound 51] (GFIGWGNDWVYFAHLDIIW-OH; lactam N-8) | – | 3.3 nM
7 | H-GNWHGTAADWVYFAHLSMIW-OH [Compound 46] | – | 0.8 nM
8 | CCC[C@H](NC(=O)[C@@H](Cc1c[nH]c2ccccc12)NC(=O)[C@H](C)NC(=O)[C@H](Cc1ccccc1)NC(=O)[C@H](Cc1ccc(O)cc1)NC(=O)[C@@H](NC(=O)[C@H](Cc1c[nH]c2ccccc12)NC(=O)[C@H](CC(=O)O)NC(=O)[C@@H]1CCCN1C(=O)[C@H](C)NC(=O)[C@@H](NC(=O)CNC(=O)[C@H](Cc1c[nH]cn1)NC(=O)[C@H](Cc1c[nH]c2ccccc12)NC(=O)[C@H](CC(N)=O)NC(=O)CN)[C@@H](C)O)C(C)C)C(=O)N[C@@H](CCC(=O)O)C(=O)N[C@H](C(=O)N[C@@H](C(=O)N[C@@H](Cc1c[nH]c2ccccc12)C(=O)O)[C@H](C)CC)[C@@H](C)CC [Compound 44, HGlyAsnTrpHisGlyThrAlaProAspTrpValTyrPheAlaD-TrpNvaGluIleD-IleTrpOH] (H-GNWHGTAPDWVYFA[dW][Nva]EI[dI]W-OH) | – | 290 nM
9 | CC[C@@H](C)[C@@H](NC(=O)[C@H](Cc1cccs1)NC(=O)[C@@H](NC(=O)[C@H](CC(C)C)NC(=O)[C@H](Cc1c[nH]cn1)NC(=O)[C@H](C)NC(=O)[C@H](Cc1ccccc1)NC(=O)[C@H](Cc1ccc(O)cc1)NC(=O)[C@@H](NC(=O)[C@H](Cc1c[nH]c2ccccc12)NC(=O)[C@H](CC(=O)O)NC(=O)[C@@H]1CCCN1C(=O)[C@H](C)NC(=O)[C@@H](NC(=O)CNC(=O)[C@H](Cc1c[nH]cn1)NC(=O)[C@H](Cc1c[nH]c2ccccc12)NC(=O)[C@H](CC(N)=O)NC(=O)CN)[C@@H](C)O)C(C)C)[C@@H](C)O)C(=O)N[C@@H](Cc1c[nH]c2ccccc12)C(=O)O [Compound 31, HGlyAsnTrpHisGlyThrAlaProAspTrpValTyrPheAlaHisLeuThrThiD-IleTrpOH] (H-GNWHGTAPDWVYFAHLT[2Thi][dI]W-OH) | – | 210 nM
